Here are results for eight molecules from patent publication US10059671B2, “Positive allosteric modulators of mGluR3” (Merck Patent GmbH, priority 2013, dated 2018).

As a reminder, the EC50 is the concentration that produces a half-maximal response.

Sequence of mGluR3 (Q14832 23-879): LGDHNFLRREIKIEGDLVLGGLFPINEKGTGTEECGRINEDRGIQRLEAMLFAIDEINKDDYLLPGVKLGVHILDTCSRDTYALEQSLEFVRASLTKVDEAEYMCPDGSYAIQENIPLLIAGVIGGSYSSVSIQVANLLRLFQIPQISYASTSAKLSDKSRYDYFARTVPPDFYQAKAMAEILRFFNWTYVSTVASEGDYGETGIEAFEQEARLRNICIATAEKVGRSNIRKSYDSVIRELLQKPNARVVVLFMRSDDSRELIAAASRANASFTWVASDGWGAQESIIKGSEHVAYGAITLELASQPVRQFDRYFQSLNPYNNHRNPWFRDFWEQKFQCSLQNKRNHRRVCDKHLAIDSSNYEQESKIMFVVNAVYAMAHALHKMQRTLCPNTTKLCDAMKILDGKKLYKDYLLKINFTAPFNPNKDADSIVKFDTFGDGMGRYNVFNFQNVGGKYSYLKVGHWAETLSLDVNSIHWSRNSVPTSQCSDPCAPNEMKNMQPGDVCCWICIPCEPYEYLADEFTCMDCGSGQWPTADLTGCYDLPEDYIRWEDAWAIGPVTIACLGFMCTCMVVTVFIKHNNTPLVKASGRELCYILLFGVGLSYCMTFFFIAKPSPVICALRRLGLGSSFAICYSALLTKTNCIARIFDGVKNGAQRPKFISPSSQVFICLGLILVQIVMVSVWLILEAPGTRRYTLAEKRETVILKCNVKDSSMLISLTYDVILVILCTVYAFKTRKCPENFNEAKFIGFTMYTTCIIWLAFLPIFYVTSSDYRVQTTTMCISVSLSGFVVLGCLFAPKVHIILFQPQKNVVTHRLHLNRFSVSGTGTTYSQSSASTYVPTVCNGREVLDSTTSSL

The target of this assay is mGluR3 (Homo sapiens, UniProt Q14832). In words: HEK293T-mGluR3-Gqi5 Calcium Mobilization Assay. In kind it is cell-based. The note with it: HEK293T-mGluR3-Gqi5 stable cell line; FLIPR Ca2+ fluorescence; with L-glutamate at EC20 concentration. The protocol:
II. Biological Assays HEK293T-mGluR3-Gqi5 Calcium Mobilization Assay Reagents: • Cells: HEK293T-mGluR3-Gqi5 Stable Cell Line (MultiSpan cat# CG1190) Culture Medium: • DMEM-GlutaMAX-1 (GIBCO #10566)+10% FBS (dialyzed & heat-inactivated, Hyclone cat# SH 30079.03), 2 mM sodium pyruvate (GIBCO #11360), 1 μg/ml puromycin (GIBCO #0399) and 250 ug/ml hygromycin (GIBCO #10687-010) HBSS (GIBCO #14025), add HEPES at 20 mM for a pH of 7.4 • 384 well cell plate: poly-D-lysine-coated, black/clear bottom microplates (Corning cat#3845) • Ca^2+ dye: FLIPR Ca-4 assay kit (Molecular Devices cat# R8142) • L-Glutamate (Sigma cat #2834) Cell Plating • Plate 8000 cells per well (1×10^5 cells/ml, in 80 μl) in a black, clear bottom, 384 well plate (Corning 3845). Incubate the cell plate for 30 minutes at RT and then incubate the cells 37° C., 5% CO2 for 16-24 hours before the assay. Ca^2+ Assay Using the FLIPR • Wash the cells with HBSS 3 times using the Bravo automated pipettor. The remaining volume of HBSS is 20 μl per well. • Add 20 μl of dye loading solution to each well and incubate the cells at 37° C., 5% CO2 for 1 hour. Prepare Compound Plate: • Serial dilute test compounds in DMSO at a 1:4 ratio, starting at al 0 mM concentration. Transfer 500 nl of the diluted compounds to a Matrix plate and add 30 μl of 37° C. HBSS, by Multidrop, to each well. The final starting concentration of the compounds is 33 uM. Prepare a solution of L-Glutamate in HBSS at 5× the EC20 concentration. Transfer to a 384 well Matrix plate using a Multidrop. The EC20 concentration is determined by a test plate before the screen. Assay: • Ca^2+ fluorescence is measured in the cells using the FLIPR Tetra (Molecular Devices). Following a baseline recording of the wells for 1 minute, add 10 ul of the diluted (5×) compounds to the cell plate and record for 3 minutes.
(A change in cytosolic calcium serves as a functional read-out for many receptors and channels.)
Consider `CCc1nc(N2CCOCC2)c(C#N)c2c1CCCC2` [Compound 3], for which the EC50 lay in the range of 1000 to 10000 nM. As to `CCc1nc(NCCCO)c(C#N)c2c1CCCC2` [Compound 7], the EC50 is 1000 to 10000 nM. Take `CCCc1nc(NCCO)c(C#N)c2c1CCCC2` [Compound 6]: the EC50 lay in the range of 1000 to 10000 nM. Next, `CCc1nc(NCCN)c(C#N)c2c1CSC(C)(C)C2` [Compound 8]: 1000 to 10000 nM. Then `CC(C)c1nc(N2CCOCC2)c(C#N)c2c1CCCC2` [Compound 1, 1-Isopropyl-3-morpholin-4-yl-5,6,7,8-tetrahydroisoquinoline-4-carbonitrile], with below 1000 nM.

On to `N#Cc1ccc(-c2ccccc2)nc1N1CCOCC1` [Compound 4], for which the concentration for a half-maximal effect (EC50) is 1000 to 10000 nM. Regarding `CCCc1nc(NCCN2CCOCC2)c(C#N)c2c1CCCC2` [Compound 5], the EC50 fell in the range of 1000 to 10000 nM. Turning to `CCCc1nc(N2CCOCC2)c(C#N)c2c1COC(C)(C)C2` [Compound 2], the EC50 was in the range of 1000 to 10000 nM.
